Values quoted from earlier work, collected in US20230046278A1, “METHOD FOR COLOURING KERATIN MATERIAL, COMPRISING THE USE OF AN ORGANIC C1-C6 ALKOXYSILANE AND TWO STRUCTURALLY DIFFERENT CELLULOSE TYPES” (Henkel AG & Co. KGaA, priority 2019, published 2023).
In brackets after ≈: the same amount, converted by molar mass.

Conditions: 25° C.

CCN(Cc1cccc(S(=O)(=O)O)c1)c1ccc(C(=C2C=CC(=[N+](CC)Cc3cccc(S(=O)(=O)O)c3)C=C2)c2ccccc2S(=O)(=O)[O-])cc1 [Acid Blue 9]
water solubility: greater than 20 % by weight

O=C(O)C1=NN(c2ccc(S(=O)(=O)O)cc2)C(=O)C1N=Nc1ccc(S(=O)(=O)O)cc1 (centres unmarked) [Acid Yellow 23, 4,5-dihydro-5-oxo-1-(4-sulfophenyl)-4-((4-sulfophenyl)azo)-1H-pyrazole-3-carboxylic acid]
solubility in water (in words): readily soluble

O=[N+]([O-])c1cc([N+](=O)[O-])c2ccc(S(=O)(=O)O)cc2c1O [Acid Yellow 9, 8-hydroxy-5,7-dinitro-2-naphthalenesulfonic acid]
solubility in water: above 40 g/L

Nc1cc(S(=O)(=O)O)cc2cc(S(=O)(=O)O)c(N=Nc3ccccc3)c(O)c12 [Acid Red 33, 5-amino-4-hydroxy-3-(phenylazo)-naphthalene-2,7-disulphonate]
solubility in water: 2500 µg/mL (≈ 5.9 mM)

O=S(=O)(O)c1ccc(N=Nc2c(O)ccc3ccccc23)cc1 [Acid Orange 7, 4-[(2-hydroxy-1-naphthyl)azo]benzenesulfonate]
solubility in water: more than 7 g/L
